Molecular target: T1, 3-hydroxy-3-methylglutaryl-coenzyme A reductase (Rattus norvegicus, UniProt P51639)
T1 sequence (P51639 whole entry): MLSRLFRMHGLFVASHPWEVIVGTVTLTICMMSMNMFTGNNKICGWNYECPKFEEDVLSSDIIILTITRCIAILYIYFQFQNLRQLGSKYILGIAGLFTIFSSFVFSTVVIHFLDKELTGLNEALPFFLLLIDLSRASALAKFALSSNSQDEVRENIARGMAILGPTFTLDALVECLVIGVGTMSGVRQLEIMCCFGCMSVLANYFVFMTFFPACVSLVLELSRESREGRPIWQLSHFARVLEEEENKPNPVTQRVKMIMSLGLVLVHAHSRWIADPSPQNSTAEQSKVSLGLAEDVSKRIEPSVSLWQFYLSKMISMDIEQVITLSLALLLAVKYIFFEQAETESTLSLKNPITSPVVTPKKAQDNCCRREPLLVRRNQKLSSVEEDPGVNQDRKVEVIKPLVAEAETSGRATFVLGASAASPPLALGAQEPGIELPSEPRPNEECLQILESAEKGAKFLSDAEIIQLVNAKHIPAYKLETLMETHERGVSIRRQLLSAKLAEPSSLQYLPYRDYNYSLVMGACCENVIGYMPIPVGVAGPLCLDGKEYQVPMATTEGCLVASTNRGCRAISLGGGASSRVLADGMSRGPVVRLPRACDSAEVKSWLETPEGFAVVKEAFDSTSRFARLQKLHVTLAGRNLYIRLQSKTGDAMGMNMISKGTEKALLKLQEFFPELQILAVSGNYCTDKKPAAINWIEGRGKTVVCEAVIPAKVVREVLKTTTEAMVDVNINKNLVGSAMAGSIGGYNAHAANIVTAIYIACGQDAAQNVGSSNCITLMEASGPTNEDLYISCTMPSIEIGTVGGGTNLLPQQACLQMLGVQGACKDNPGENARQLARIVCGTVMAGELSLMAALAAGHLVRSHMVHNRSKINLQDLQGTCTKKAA
Assay: HMG-CoA Reductase In Vitro Assay
From the text: Assay for HMG-CoA reductase was based on the conversion of isotopically labeled HMG-CoA to mevalonic acid using rat liver microsomes as enzyme source. The product, [14C]-mevalonic acid was lactonized and separated from excess substrate via an anion ion exchange resin column, and radioactivity was counted on a scintillation counter.

CC(C)c1c(C(=O)N2CCc3ccccc3C2)nn(-c2ccc(F)cc2)c1OC[C@@H](O)C[C@@H](O)CC(=O)O [(3R,5S)-6-{[1-(4-fluorophenyl)-4-(propan-2-yl)-3-(1,2,3,4-tetrahydroisoquinolin-2-ylcarbonyl)-1H-pyrazol-5-yl]oxy}-3,5-dihydroxyhexanoic acid]
IC50: 10 nM

Reference: BindingDB's records for doi:10.1016/j.bmcl.2007.08.004 (Pfizer, 2007)
